From patent US20240358693A1, “METHODS OF TREATING PAIN” (Aisa Pharma, Inc., priority 2023, published 2024)

System: participants with SSc-RP
Assay: Scleroderma Health Assessment Questionnaire (SHAQ): disability indices and visual analog scales
Type: in vivo, human
Settings: Day 12
From the text: The standard, validated, patient reported outcome measures tool for SSc patients, the Scleroderma Health Assessment Questionnaire (SHAQ), will be used to assess the participant qualify of life. Details are attached in the Appendix. The participant quality of life will be scored, and a disability index calculated for each questionnaire completed by the patient at Screening and each in-clinic visit. The absolute change in participant quality of life from baseline to the end of each dosing period will be calculated similar to frequency data as before.
The SHAQ includes a Raynaud's VAS, which will be reported at screening and each in-clinic visit. The absolute change in Raynaud-VAS, assessed by the participants response to the SHAQ question ‘In the past 7 days, how much have your Raynaud's interfered with your daily activities?’ at baseline and the end of each dosing period will be calculated similar to frequency data as before.
The SHAQ is used to calculate a Disability Index to assess the participant qualify of life. The eight categories assessed by the Disability Index are 1) dressing and grooming, 2) arising, 3) eating, 4) walking, 5) hygiene, 6) reach, 7) grip, and 8) common daily activities. For each of these categories, patients report the amount of difficulty they have in performing two or three specific activities.
There are four possible responses for the Disability Index questions: • Without any difficulty=0 • With some difficulty=1 • With much difficulty=2 • Unable to do=3. • The highest score reported by the patient for any component question of the eight categories determines the score for that category. • If a component question is left blank or the response is too ambiguous to assign a score, then the score for that category is determined by the remaining completed question(s). • If all component questions are blank or if more than one answer is given, then follow up with the respondent is required. • If the respondent's mark is between the response columns, then move it to the closest one. If it's directly between the two, move it to the higher one.
Each of the disability items on the SHAQ has a companion aids/devices variable that is used to record what type(s) of assistance, if any, the participant uses for his/her usual activities. These variables (see below) are coded as follows: • 0=No assistance is needed. • 1=A special device is used by the patient in his/her usual activities. • 2=The patient usually needs help from another person. • 3=The patient usually needs BOTH a special device AND help from another person.
The scoring variables and scoring rules permit the computation of two disability indices, the Standard Disability Index and the Alternative Disability Index.
This question results in a new set of category scores that are computed by adjusting the score for each category, if necessary, based on the patient's use of an aid or device or assistance for that category. If either devices and/or help from another person are checked for a category, the score is set to “2”, unless the score is already “3” (i.e., scores of “0” or “1” are increased to “2”). For example, if the highest score for the dressing category is “1”, and the patient says they use a device for dressing, the computed category score would be “2”. The sum of the computed categories scores is then calculated and divided by the number of categories answered. This gives a score in the 0 to 3 range.
The aid and device variables are not used to calculate the alternative disability index; it is calculated by adding the scores for each of the categories and dividing by the number of categories answered. This gives a score in the 0 to 3 range.
The standard, validated, patient reported outcome measures tool for SSc patients, the SHAQ, was collected at the time points specified in the study schedules (FIG. 2 and FIGS. 4A and 4B) to assess the participant's quality of life. The SHAQ included a Raynaud's VAS that will also be reported separately.

[1] = Pooled Cilnidipine 20 mg and Cilnidipine 20 mg + Tadalafil 5 mg (N = 8), PP Population Part A
[2] = Pooled Cilnidipine (N = 8), PP Population Part A
[3] = mITT Part A, SSc patients, cilnidipine 10 mg and/or tadalafil 5 mg as in the arm

In the case of `COCCOC(=O)C1=C(C)NC(C)=C(C(=O)OC/C=C/c2ccccc2)C1c1cccc([N+](=O)[O-])c1` (stereo not shown) [Cilnidipine, cilnidipine], the “SHAQ Visual Analogue Scale - Pain, Change from Baseline, Median” value [1] is reported as −0.500, the “SHAQ Visual Analogue Scale - Pain, Percent Change from Baseline, Mean” value [1] is reported as −25.85% and the “SHAQ Visual Analogue Scale - Pain, Percent Change from Baseline, Median” value [1] is reported as −48.78%. The “SHAQ Visual Analogue Scale - Raynaud's, Change from Baseline, Mean” value [1] was −1.013, the “SHAQ Visual Analogue Scale - Raynaud's, Change from Baseline, Median” value [1] was −0.650 and the “SHAQ Visual Analogue Scale - Raynaud's, Percent Change from Baseline, Mean” value [1] was −32.40%. For the same compound, the “SHAQ Visual Analogue Scale - Raynaud's, Percent Change from Baseline, Median” value [1] was −37.35%, the “SHAQ Visual Analogue Scale - Breathing Problems, Change from Baseline, Mean” value [2] was −0.388 and the “SHAQ Visual Analogue Scale - Breathing Problems, Change from Baseline, Median” value [2] was 0.000. For the same compound, the “SHAQ Visual Analogue Scale - Breathing Problems, Percent Change from Baseline, Mean” value [2] was −0.22%, the “SHAQ Visual Analogue Scale - Breathing Problems, Percent Change from Baseline, Median” value [2] was −16.00% and the “SHAQ Visual Analogue Scale - Finger Ulcers, Change from Baseline, Mean” value [2] was −0.643. For the same compound, the “SHAQ Visual Analogue Scale - Finger Ulcers, Change from Baseline, Median” value [2] was 0.000, the “SHAQ Visual Analogue Scale - Finger Ulcers, Percent Change from Baseline, Mean” value [2] was −17.08% and the “SHAQ Visual Analogue Scale - Finger Ulcers, Percent Change from Baseline, Median” value [2] was −50.82%. The “SHAQ Visual Analogue Scale - Intestinal Problems, Change from Baseline, Mean” value [2] was −0.863, the “SHAQ Visual Analogue Scale - Intestinal Problems, Change from Baseline, Median” value [2] was −0.050 and the “SHAQ Visual Analogue Scale - Intestinal Problems, Percent Change from Baseline, Mean” value [2] was −43.69%. For the same compound, the “SHAQ Visual Analogue Scale - Intestinal Problems, Percent Change from Baseline, Median” value [2] was −66.06%, the “SHAQ Visual Analogue Scale - Overall Disease Severity, Change from Baseline, Mean” value [2] was −1.450 and the “SHAQ Visual Analogue Scale - Overall Disease Severity, Change from Baseline, Median” value [2] was −1.550. For the same compound, the “SHAQ Visual Analogue Scale - Overall Disease Severity, Percent Change from Baseline, Mean” value [2] was −61.10%, the “SHAQ Visual Analogue Scale - Overall Disease Severity, Percent Change from Baseline, Median” value [2] was −60.00% and the “SHAQ Visual Analogue Scale - Pain, Change from Baseline, Mean” value [2] was −0.375. For the same compound, the “SHAQ Visual Analogue Scale - Pain, Change from Baseline, Median” value [2] was −0.250, the “SHAQ Visual Analogue Scale - Pain, Percent Change from Baseline, Mean” value [2] was −23.98% and the “SHAQ Visual Analogue Scale - Pain, Percent Change from Baseline, Median” value [2] was −41.18%. For the same compound, the “SHAQ Visual Analogue Scale - Raynaud's, Change from Baseline, Mean” value [2] was −0.438, the “SHAQ Visual Analogue Scale - Raynaud's, Change from Baseline, Median” value [2] was −0.600 and the “SHAQ Visual Analogue Scale - Raynaud's, Percent Change from Baseline, Mean” value [2] was −18.62%. For the same compound, the “SHAQ Visual Analogue Scale - Raynaud's, Percent Change from Baseline, Median” value [2] was −33.33%, the “SHAQ Alternative Disability Index, Change from Baseline, Mean” value [3] was 0.083 and the “SHAQ Alternative Disability Index, Change from Baseline, Median” value [3] was 0.000. The “SHAQ Alternative Disability Index, In-Clinic Visit (Day 12), Mean” value [3] was 0.750, the “SHAQ Alternative Disability Index, In-Clinic Visit (Day 12), Median” value [3] was 1.000 and the “SHAQ Alternative Disability Index, Percent Change from Baseline, Mean” value [3] was 15.87%. The “SHAQ Alternative Disability Index, Percent Change from Baseline, Median” value [3] was 15.87%, the “SHAQ Visual Analogue Scale - Finger Ulcers, Change from Baseline, Mean” value [3] was −0.567 and the “SHAQ Visual Analogue Scale - Finger Ulcers, Change from Baseline, Median” value [3] was −0.700. For the same compound, the “SHAQ Visual Analogue Scale - Finger Ulcers, In-Clinic Visit (Day 12), Mean” value [3] was 0.367, the “SHAQ Visual Analogue Scale - Finger Ulcers, In-Clinic Visit (Day 12), Median” value [3] was 0.000 and the “SHAQ Visual Analogue Scale - Finger Ulcers, Percent Change from Baseline, Mean” value [3] was −69.44%. For the same compound, the “SHAQ Visual Analogue Scale - Finger Ulcers, Percent Change from Baseline, Median” value [3] was −69.44%, the “SHAQ Visual Analogue Scale - Intestinal Problems, Change from Baseline, Mean” value [3] was −2.467 and the “SHAQ Visual Analogue Scale - Intestinal Problems, Change from Baseline, Median” value [3] was −3.000. For the same compound, the “SHAQ Visual Analogue Scale - Intestinal Problems, In-Clinic Visit (Day 12), Mean” value [3] was 1.467, the “SHAQ Visual Analogue Scale - Intestinal Problems, In-Clinic Visit (Day 12), Median” value [3] was 0.600 and the “SHAQ Visual Analogue Scale - Intestinal Problems, Percent Change from Baseline, Mean” value [3] was −66.06%. The “SHAQ Visual Analogue Scale - Intestinal Problems, Percent Change from Baseline, Median” value [3] was −66.06%, the “SHAQ Visual Analogue Scale - Overall Disease Severity, Change from Baseline, Mean” value [3] was −1.067 and the “SHAQ Visual Analogue Scale - Overall Disease Severity, Change from Baseline, Median” value [3] was −1.500. For the same compound, the “SHAQ Visual Analogue Scale - Overall Disease Severity, In-Clinic Visit (Day 12), Mean” value [3] was 2.433, the “SHAQ Visual Analogue Scale - Overall Disease Severity, In-Clinic Visit (Day 12), Median” value [3] was 1.900 and the “SHAQ Visual Analogue Scale - Overall Disease Severity, Percent Change from Baseline, Mean” value [3] was −35.44%. For the same compound, the “SHAQ Visual Analogue Scale - Overall Disease Severity, Percent Change from Baseline, Median” value [3] was −35.44%, the “SHAQ Visual Analogue Scale - Pain, Change from Baseline, Mean” value [3] was 0.100 and the “SHAQ Visual Analogue Scale - Pain, Change from Baseline, Median” value [3] was 0.000. For the same compound, the “SHAQ Visual Analogue Scale - Pain, In-Clinic Visit (Day 12), Mean” value [3] was 2.167, the “SHAQ Visual Analogue Scale - Pain, In-Clinic Visit (Day 12), Median” value [3] was 2.900 and the “SHAQ Visual Analogue Scale - Pain, Percent Change from Baseline, Mean” value [3] was 5.77%. For the same compound, the “SHAQ Visual Analogue Scale - Pain, Percent Change from Baseline, Median” value [3] was 5.77%.
